Read-outs that look alike come from different tables or passages of the source. A value given as a limit tells only on which side of the number the result lay.

In general, IC50 refers to the concentration needed to halve the response being measured. As a reminder, the melting point is the temperature, or range, at which the solid turns liquid.

In data set [1] the test system is HT-29 (human colorectal adenocarcinoma) cells. Description: MTT reduction assay, antiproliferative effect, HT-29. The data set is classed as cell-based. Conditions: for IC50: read-out: HT-29 IC50; for viability at 25 µM: cell line not named in the sentence (NA in HT-29, MCF-7, MOLT-4 in Table 1), read-out: Cell viability at the highest tested concentration. From the text: (§1) Fetal bovine serum (FBS), phosphate-buffered saline (PBS), RPMI-1640, and trypsin were obtained from Biosera (Ringmer, UK). Penicillin/streptomycin and MTT (3-(4,5-dimethylthiazol-2-yl)-2,5-diphenyltetrazolium bromide) were from Sigma-Aldrich (Saint Louis, MO, USA) and Invitrogen (San Diego, CA, USA), respectively. Dimethyl sulfoxide and doxorubicin were purchased from Merck (Darmstadt, Germany) and EBEWE Pharma (Unterach, Austria), respectively. The cells were acquired from Iranian Biological Resource Center, Tehran, Iran (HT-29 (human colorectal adenocarcinoma), MCF-7 (human breast adenocarcinoma) and Vero (African green monkey kidney) cells) or National Cell Bank of Iran, Pasteur Institute, Tehran, Iran (MOLT-4 (lymphoblastic leukemia) cells).
(§2) MTT reduction assay was employed to assess the viability of cancer cells after being treated with synthesized derivatives as previously described ([34]). The cells were plated in flat-bottom 96-well microplates, at densities of 3 × 10^4 cells/mL (100 μL in each well) and then incubated overnight at 37 °C. Three to four different concentrations of synthesized derivatives (in the range of 1 to 100 μM) were placed in triplicate wells and the plates were incubated for 72 h at 37 °C. […] At the end of the incubation time, 80 μL of the media in each well was replaced with the same amount of growth medium without phenol red containing 0.5 mg/mL of MTT. Cells were further incubated at 37 °C for 4 h and then 80 μL of the solution of each well was removed. The addition of DMSO (200μL) to each well solubilized the formazan crystals formed inside the viable cells after 1-hour incubation followed by 30-minute shaking. The optical absorbance of the final solution was determined at 570 nm using a Bio-Tek multimode plate reader (Synergy HTX). The cell viability was calculated compared to untreated control cells by comparison of absorbance measurements. CurveExpert software (version 1.34 for Windows) was used to determine the IC50 value for each compound. To confirm the results, every experiment was repeated 3 to 5 times.
Background: Formazan colour is commonly taken as a measure of viable cells.

Data set [2] deals with MOLT-4 (lymphoblastic leukemia) cells. The data set is described as follows: MTT reduction assay, antiproliferative effect, MOLT-4. It is filed as cell-based, human. Conditions: read-out: MOLT-4 IC50.
Text: as §1, §2

Data set [3] has as its system MCF-7 (human breast adenocarcinoma) cells. Description: MTT reduction assay, antiproliferative effect, MCF-7. The data set is classed as cell-based.
Text: as §1, §2

Data set [4] concerns Vero (African green monkey kidney) cells. Description: MTT reduction assay, Vero normal cells. It is filed as cell-based. The settings on record: read-out: Vero IC50.
Text: as §1, §2

Data set [5] relates to MCF-7 cells. Description: Cell cycle analysis, propidium iodide/RNase flow cytometric assay. It is filed as cell-based, human. Conditions: 48 h; for Effect on number of cells in G0/G1: MCF-7, 10 and 25 µM. On the procedure: Alterations of the cell cycle were determined by the propidium iodide (PI)-RNase flow cytometric method ([35]). MCF-7 cells were used to determine the percentage of cells in each phase of the cell cycle. In 6-well plates, 2 × 10^5 cells were seeded in each well and incubated at 37 °C for 48 h. Afterward, they were treated for 48 h with derivatives 9g, 9j, 9k and 9l at 10 and 25 μM. The cells were then collected after trypsinization, washed twice with PBS, and fixed by 5 mL ethanol 70% for at least 24 h at -20 °C. After fixation, MCF-7 cells were washed with PBS two times and stained with PI 20 µg/mL and RNase 200 µg/mL for 30 min in the dark at room temperature. A FACS Calibur ﬂow cytometer (BD Biosciences) was used for the assays and 20,000 events were analyzed. The number of cells distributed in sub-G1, G0/G1, S, and G2/M were determined by CellQuest software (BD, USA).
Figure 2 Representative cell cycle histograms of MCF-7 cells treated with synthesized derivatives. Analysis of the percentage of cells in different phases of cell cycle was performed using propidium iodide (PI)-RNase flow cytometric assay. MCF-7 cells were seeded in 6-well microplates and treated with synthesized derivatives for 48 h. The cells were then collected and fixed in 70% ethanol overnight at -20 °C. In the end, the cells were stained with DNA staining solution (PI 20 µg/mL and RNase 200 µg/mL) for 30 min and 20,000 events were analyzed by a FACS Calibur ﬂow cytometer (BD Biosciences). Representative histograms of cells treated with compounds 9g, 9j, 9k and 9l are shown
In general terms: A flow cytometer gives signals particle by particle.

For data set [6], the system named is MCF-7 cells. The data set is described as follows: Hoechst 33258 staining, detection of apoptosis. The data set is classed as cell-based, human. Conditions: MCF-7, 72 h treatment, especially at 25 µM. The procedure:
Hoechst 33258 was used as a DNA stain to detect apoptosis in cells. MCF-7 cells were seeded in a 6-well plate at a density of 5 × 10^4 cells/mL (2 mL per well) and incubated for 24 h. The whole medium was removed and different concentrations of test compounds 9g, 9j, 9k, and 9l diluted in 2 mL medium were placed in the different wells and incubated for 72 h. Afterward, the medium was removed again, 1 mL of 4% cold freshly prepared paraformaldehyde (PFA) was added, and cells were incubated for 20 min at room temperature. The cells were then washed 2 times with 1 ml PBS and incubated with 1 mL Hoechst 33258 2.5 µg/mL for 30 min in the dark at room temperature ([36], [37]). In the end, the cells were washed with 1 mL PBS and imaged with a fluorescence microscope.
Figure 3 Detection of apoptosis in MCF-7 cells by Hoechst staining. Hoechst 33258 was used as a DNA stain to detect apoptosis in MCF-7 cells treated with synthesized compounds. The cells were seeded in a 6-well plates and treated with different concentrations of test compounds 9g, 9j, 9k and 9l for 72 h. After removing the whole medium, 4% cold freshly prepared paraformaldehyde (PFA) was added for 20 min at room temperature, the cells were then washed twice with PBS, and incubated with Hoechst 33258 2.5 µg/mL for 30 min at room temperature in the dark. Finally, the cells were washed with PBS again and the plates were imaged with a fluorescence microscope

Setting [7] is: Homo sapiens, MCF7, 72 h, read-out: MCF-7 IC50, MTT, 72 h incubation.
Where [8] appears, read: Chlorocebus sabaeus, Vero, 72 h.

Turning to `N.N.[Cl][Pt][Cl]` [Cisplatin, reference compound], the half-inhibitory concentration (IC50) was 24.6 ± 3.6 µM in data set [1] (MTT, 72 h incubation); 2.9 ± 0.2 µM in data set [2] (MTT, 72 h incubation); 8.1 ± 2.6 µM in data set [3] (MTT, 72 h incubation, read-out: MCF-7 IC50); 7.8 ± 1 µM in data set [4] (MTT, 72 h incubation, normal cells).

In the case of `C(=NNc1nnc2c3ccccc3c3ccccc3c2n1)c1ccccc1` [Compound 9a, 3-(2-benzylidenehydrazinyl)phenanthro [9,10-e][1,2,4]triazine], the melting point was 286 to 290 °C. Also, the viability at 25 µM in data set [1] (Homo sapiens, MTT) is at least 50%.

Regarding `COc1ccccc1C=NNc1nnc2c3ccccc3c3ccccc3c2n1` [Compound 9b, 3-(2-(2-methoxybenzylidene)hydrazinyl)phenanthro[9,10-e][1,2,4]triazine], the melting point lay in the range of 252 to 254 °C. Also, in data set [1] (Homo sapiens, HT-29, 72 h), the half-inhibitory concentration (IC50) was 20.1 ± 3 µM. Further, the IC50 in data set [2] (Homo sapiens, MOLT-4, 72 h) stood at 7.8 ± 1.8 µM. Besides, in data set [3] (setting [7]), the IC50 came to 15.2 ± 3.1 µM. In data set [4] (setting [8]), the 50% inhibitory concentration (IC50) came to 13 ± 1.8 µM.

In turn, `Oc1cccc(C=NNc2nnc3c4ccccc4c4ccccc4c3n2)c1` [Compound 9e, 3-((2-(phenanthro[9,10-e][1,2,4]triazin-3-yl)hydrazono)methyl)phenol] yielded a melting point of 219 to 223 °C. In addition, in data set [1] (Homo sapiens, HT-29, 72 h), the concentration for half-maximal inhibition (IC50) worked out at 15.2 ± 2.1 µM. In addition, in data set [2] (Homo sapiens, MOLT-4, 72 h), the IC50 came to 4.4 ± 1.1 µM. In data set [3] (setting [7]), the IC50 amounted to 9.3 ± 1.6 µM. For the same molecule, the concentration for half-maximal inhibition (IC50) in data set [4] (setting [8]) amounted to 30 ± 6 µM.

Turning to `Oc1cccc(C=NNc2nnc3c4ccccc4c4ccccc4c3n2)c1O` [Compound 9f, 3-((2-(phenanthro[9,10-e][1,2,4]triazin-3-yl)hydrazono)methyl)benzene-1,2-diol], the melting point fell in the range of 329 to 333 °C. Further, the viability at 25 µM in data set [1] (Homo sapiens, MTT) is at least 50%.

In turn, `O=[N+]([O-])c1ccccc1C=NNc1nnc2c3ccccc3c3ccccc3c2n1` [Compound 9g, 3-(2-(2-nitrobenzylidene)hydrazinyl)phenanthro[9,10-e][1,2,4]triazine] had a melting point of 225 to 229 °C. In addition, in the data set on MCF-7 cells [5] (MCF-7, 10 µM), the “Percentage of cells in G0/G1” value is 69.25 ± 2.1, the “Percentage of cells in G2/M” value is given as 18.58 ± 2.2, the “Percentage of cells in S” value is listed as 8.79 ± 1.3 and the “Percentage of cells in Sub G1” value is reported as 1.35 ± 0.3. Also, in the data set with MCF-7 cells [5] (MCF-7, 25 µM), the “Effect on cells in sub-G1 phase” value was “increased the cells in the sub-G1 phase”, the “Percentage of cells in G0/G1” value turned out to be 74.76 ± 4.9, the “Percentage of cells in G2/M” value is recorded as 13.97 ± 3.3 and the “Percentage of cells in S” value is reported as 7.58 ± 1.9. Besides, in the data set with MCF-7 cells [5] (MCF-7, 25 µM), the “Percentage of cells in Sub G1” value worked out at 1.82 ± 0.3. The “Effect on number of cells in G0/G1” value in the data set with MCF-7 cells [5] was “significantly enhanced the number of cells in the G0/G1”. Moreover, the IC50 in data set [1] (Homo sapiens, HT-29, 72 h) is 16.7 ± 2.2 µM. Also, the IC50 in data set [2] (Homo sapiens, MOLT-4, 72 h) turned out to be 5.4 ± 1 µM. Moreover, in data set [3] (setting [7]), the IC50 worked out at 6.2 ± 1.3 µM. The IC50 in data set [4] (setting [8]) is 11.1 ± 1 µM. Moreover, the “Apoptosis induction by Hoechst 33258 staining” value with MCF-7 cells [6] is listed as “showed signs of apoptosis”.

The molecule `O=[N+]([O-])c1cccc(C=NNc2nnc3c4ccccc4c4ccccc4c3n2)c1` [Compound 9h, 3-(2-(3-nitrobenzylidene)hydrazinyl)phenanthro[9,10-e][1,2,4]triazine] returned a melting point of 216 to 219 °C. For the same molecule, the 50% inhibitory concentration (IC50) in data set [1] (Homo sapiens, HT-29, 72 h) amounted to 12.2 ± 4.1 µM. In addition, the IC50 in data set [2] (Homo sapiens, MOLT-4, 72 h) was 3.9 ± 0.6 µM. In addition, the IC50 in data set [3] (setting [7]) stood at 10.4 ± 2.9 µM. Further, the half-inhibitory concentration (IC50) in data set [4] (setting [8]) amounted to 19.4 ± 6.8 µM.

With `O=[N+]([O-])c1ccc(C=NNc2nnc3c4ccccc4c4ccccc4c3n2)cc1` [Compound 9i, 3-(2-(4-nitrobenzylidene)hydrazinyl)phenanthro[9,10-e][1,2,4]triazine], the melting point lay within 240 to 244 °C. Further, the half-inhibitory concentration (IC50) in data set [1] (Homo sapiens, HT-29, 72 h) stood at 7.6 ± 0.8 µM. Besides, in data set [2] (Homo sapiens, MOLT-4, 72 h), the IC50 is 7.5 ± 0.1 µM. For the same molecule, the IC50 in data set [3] (setting [7]) stood at 17.7 ± 1.7 µM. For the same molecule, the 50% inhibitory concentration (IC50) in data set [4] (setting [8]) came to 7.4 ± 1.4 µM.

The molecule `N#Cc1ccc(C=NNc2nnc3c4ccccc4c4ccccc4c3n2)cc1` [Compound 9j, 4-((2-(phenanthro[9,10-e][1,2,4]triazin-3-yl)hydrazono)methyl)benzonitrile] had a melting point of 231 to 234 °C. Further, in the data set with MCF-7 cells [5] (MCF-7, 10 µM), the “Percentage of cells in G0/G1” value was determined as 71.40 ± 2.2, the “Percentage of cells in G2/M” value is 17.95 ± 3.0, the “Percentage of cells in S” value is listed as 9.59 ± 2.0 and the “Percentage of cells in Sub G1” value came out at 1.08 ± 0.2. Besides, in the data set with MCF-7 cells [5] (MCF-7, 25 µM), the “Percentage of cells in G0/G1” value came to 73.10 ± 3.0, the “Percentage of cells in G2/M” value is reported as 17.51 ± 2.6, the “Percentage of cells in S” value amounted to 8.09 ± 2.0 and the “Percentage of cells in Sub G1” value is listed as 1.30 ± 0.4. In addition, the “Effect on number of cells in G0/G1” value with MCF-7 cells [5] is listed as “significantly enhanced the number of cells in the G0/G1”. Moreover, the IC50 in data set [1] (Homo sapiens, HT-29, 72 h) amounted to 15.3 ± 1.5 µM. In addition, the IC50 in data set [2] (Homo sapiens, MOLT-4, 72 h) is 5.5 ± 0.1 µM. Further, the IC50 in data set [3] (setting [7]) is 5.8 ± 0.7 µM. Also, the IC50 in data set [4] (setting [8]) is 11.3 ± 2.1 µM. Further, the “Apoptosis induction by Hoechst 33258 staining” value with MCF-7 cells [6] is reported as “showed signs of apoptosis”.

In the case of `COc1cccc2c1C(=O)c1c(O)c3c(c(O)c1C2=O)C[C@@](O)(C(=O)CO)C[C@@H]3O[C@H]1C[C@H](N)[C@H](O)[C@H](C)O1` [Doxorubicin, reference compound], the IC50 in data set [1] (Homo sapiens, HT-29, MTT, 72 h incubation) worked out at 0.409 ± 0.038 µM; in data set [2] (Homo sapiens, MOLT-4, MTT, 72 h incubation), 0.017 ± 0.001 µM; in data set [3] (Homo sapiens, MCF7, MTT, 72 h incubation, read-out: MCF-7 IC50), 0.066 ± 0.007 µM; in data set [4] (Chlorocebus sabaeus, Vero, MTT, 72 h incubation, normal cells), 0.926 ± 0.031 µM.

Values taken from PMC8653689, “Phenanthrotriazine Derivatives Containing Arylidine Hydrazone Moieties as Novel Potential c-Met Inhibitors with Anticancer Effect” (Iranian Journal of Pharmaceutical Research : IJPR, 2021).
